According to patent US20080262044A1, “Pesticidal Mixtures” (Syngenta Participations AG, priority 2005, published 2008):

Key:
[1] = system: Aphis craccivora (nymphs); test: Action against Aphis craccivora (nymphs), bean leaf disks; assay type: in vivo; conditions: foliar, 96 h, Table B4, Pyroquilon 1 ppm, WP 25, nymphs on bean leaf disks, after four days
Description: Fourteen day old bean plants (Vicia faba var. Wittkiens) were sprayed with 60 ml sample solution. The following day 3.5 cm leaf disks were cut and placed in petri dishes containing 2 ml agar (2%) and 5-10 adult aphids placed on the leaves. Petri dishes were covered with gauze and closed with a lid and placed up-side down. The following day all adult aphids were removed and only nymphs left on the leaf at a temperature of 20° C., 60% relative humidity and 16L:8D conditions. Assessment of dead and alife aphids performed after four days. (3 replicates per treatment).

Spodoptera littoralis L2 = test: Action against Spodoptera littoralis L2 (sprayed cotton leaves, petri dish); assay type: in vivo; conditions: 96 h
Description: The following day leaves were placed in petri dishes containing a moist filter paper and 10 L2 larvae placed on the leaves. Petri dishes were covered with gauze and closed with a lid and left at a temperature of 25° C., 40-60% relative humidity and 16L:8D conditions. Assessment of dead and alife larvae was performed after four days. (30 insects assessed per treatment).

With `O=C1CCc2cccc3c2N1CC3` [Pyroquilon, pyroquilon] the mortality at 1 ppm [1] was 3.3%, the mortality at 1 ppm (Spodoptera littoralis L2; Table B1, Pyroquilon 1 ppm, WP 25, L2 larvae on cotton leaves, after four days) was 6.7% and the mortality at 10 ppm (Spodoptera littoralis L2; Table B3, Pyroquilon 10 ppm, WP 25, after four days) was 6.7%.
